Results on 14 compounds are retold here after patent US20220296627A1, “Cytidine Derivatives and Methods of Forming Cytidine Derivatives” (Aenorasis Commercial Company of Pharmaceutical and Medical …, priority 2019, published 2022).

The structures appear in SMILES notation. pIC50: −log10 of the molar value.

Common to all, as to assay type: cell-based
For experiment [1], the system named is SW1573/WT wild type non-small lung human cell line. Briefly: Cell growth assay (SRB) in SW1573/WT. To be noted: for pIC50: Homo sapiens, SW1573, SW 1573/WT; for Ratio of IC50 in the presence of dipyridamole / IC50 in the absence of dipyridamole / Ratio of IC50 in the presence of, compared to in the absence of, dipyridamole: SW 1573/WT; for Ratio of IC50 in the presence of dipyridamole / IC50 in the absence of dipyridamole: 4-N-acyl and 4-N-phosphoryl derivatives (Table 5); for Ratio of IC50 in the presence of, compared to in the absence of, dipyridamole: acetylated 4-N-acyl derivatives (Table 7). How it is done:
(§1) Biological activities of the Gemcitabine derivative (which may be referred to as analogues) described above were evaluated with two assays: • 1. Cell growth assay using the SRB assay in cell lines A549/WT, SW1573/WT, PANC-01 and BXPC-3. • 2. MTT assay in human bladder cancer cell line T-24
(§2) The following cell lines were tested: • A549/WT —wild type human lung adenocarcinoma cell line (1) • SW1573/WT —wild type non-small lung human cell line (2), • PANC-01—human pancreatic cancer cell line (3) • BXPC-3 -epithelial human pancreatic adenocarcinoma cells (4).
(§3) Dipyridamole inhibits adenosine uptake by erythrocytes platelets and endothelial cells in vitro and in vivo. Thus, the present inventors recruited dipyridamole as an inhibitor of the nucleoside transporters of the tumour cells to observe the behaviour of the presently described Gemcitabine derivatives.
(§4) From the IC50 of each compound in the presence of dipyridamole, by dividing it with the IC50 of each compound in the absence of dipyridamole, the present inventors calculated a ratio that compared the efficacy of the analogous presence of dipyridamole.
(§5) Ratio=IC50 in the presence of dipyridamole/IC50 in the absence of dipyridamole • FIG. 10. Ratio of IC50 of 4-N-acyl and 4-N-phosphoryl derivatives in the presence of, compared to in the absence of, dipyridamole, in four cell lines

Experiment [2] has as its system A549/WT wild type human lung adenocarcinoma cell line. As to the kind of experiment: Cell growth assay (SRB) in A549/WT. The settings on record: for Ratio of IC50 in the presence of dipyridamole / IC50 in the absence of dipyridamole / Ratio of IC50 in the presence of, compared to in the absence of, dipyridamole: A549/WT; for Ratio of IC50 in the presence of dipyridamole / IC50 in the absence of dipyridamole: 4-N-acyl and 4-N-phosphoryl derivatives (Table 5); for pIC50: Homo sapiens, A549, A549/WT; for Ratio of IC50 in the presence of, compared to in the absence of, dipyridamole: acetylated 4-N-acyl derivatives (Table 7). How it is done:
as §1, §2, §3, §4, §5

The subject of experiment [3] is PANC-01 human pancreatic cancer cell line. Briefly: Cell growth assay (SRB) in PANC-01. To be noted: for Ratio of IC50 in the presence of dipyridamole / IC50 in the absence of dipyridamole: 4-N-acyl and 4-N-phosphoryl derivatives (Table 5); for pIC50: Homo sapiens, Pancreatic cancer cell; for Ratio of IC50 in the presence of, compared to in the absence of, dipyridamole: acetylated 4-N-acyl derivatives (Table 7). How it is done: as §1, §2, §3, §4, §5

In experiment [4] the test system is BXPC-3 epithelial human pancreatic adenocarcinoma cells. Briefly: Cell growth assay (SRB) in BXPC-3. To be noted: for Ratio of IC50 in the presence of dipyridamole / IC50 in the absence of dipyridamole / Ratio of IC50 in the presence of, compared to in the absence of, dipyridamole: BXPC-3; for Ratio of IC50 in the presence of dipyridamole / IC50 in the absence of dipyridamole: 4-N-acyl and 4-N-phosphoryl derivatives (Table 5); for pIC50: Homo sapiens, BXPC-3, BXPC-3; for Ratio of IC50 in the presence of, compared to in the absence of, dipyridamole: acetylated 4-N-acyl derivatives (Table 7). How it is done: as §1, §2, §3, §4, §5

[5] abbreviates: 4-N-acyl and 4-N-phosphoryl derivatives (Table 4).
Where [6] appears, read: acetylated 4-N-acyl derivatives (Table 6).

As for `CCCCOC(=O)Nc1ccn(C2OC(CO)C(O)C2(F)F)c(=O)n1` (stereo not shown) [Derivative 2], the pIC50 is 6.34 in experiment [1] (setting [5]), 6.15 in experiment [2] (setting [5]), 5.61 in experiment [3] (setting [5]) and 6.47 in experiment [4] (setting [5]). Also, the “Ratio of IC50 in the presence of dipyridamole / IC50 in the absence of dipyridamole” value is 8 in experiment [1], 3.4 in experiment [2], 2.4 in experiment [3] and 3.7 in experiment [4].

Turning to `O=C(Nc1ccn(C2OC(CO)C(O)C2(F)F)c(=O)n1)OCCCl` (stereo not shown) [Derivative 3A], the pIC50 is 6.21 in experiment [1] (setting [5]), 6.02 in experiment [2] (setting [5]), 5.52 in experiment [3] (setting [5]) and 6.30 in experiment [4] (setting [5]). Also, the “Ratio of IC50 in the presence of dipyridamole / IC50 in the absence of dipyridamole” value in experiment [1] is 40.9; in experiment [2] it was 10.5; in experiment [3], 0.6; in experiment [4], 27.

Turning to `O=C1OCCN1c1ccn(C2OC(CO)C(O)C2(F)F)c(=O)n1` (stereo not shown) [Derivative 3B], the pIC50 is 7.00 in experiment [1] (setting [5]), 6.80 in experiment [2] (setting [5]), 6.42 in experiment [3] (setting [5]) and 7.00 in experiment [4] (setting [5]). The “Ratio of IC50 in the presence of dipyridamole / IC50 in the absence of dipyridamole” value in experiment [1] is reported as 25; in experiment [2], 18.1; in experiment [3], 23; in experiment [4], 24.

Turning to `C#CCOC(=O)Nc1ccn(C2OC(CO)C(O)C2(F)F)c(=O)n1` (stereo not shown) [Derivative 5], the pIC50 in experiment [1] (setting [5]) is 6.42; in experiment [2] (setting [5]), 6.35; in experiment [3] (setting [5]), 5.73; in experiment [4] (setting [5]), 6.62. Also, the “Ratio of IC50 in the presence of dipyridamole / IC50 in the absence of dipyridamole” value is 13 in experiment [1], 11.1 in experiment [2], 2.7 in experiment [3] and 23 in experiment [4].

`CC(COC(=O)Nc1ccn(C2OC(CO)C(O)C2(F)F)c(=O)n1)c1ccccc1[N+](=O)[O-]` (stereo not shown) [Derivative 6]: the pIC50 in experiment [1] (setting [5]) was 6.37; in experiment [2] (setting [5]), 6.30; in experiment [3] (setting [5]) it was 5.80; in experiment [4] (setting [5]), 6.47. For the same compound, the “Ratio of IC50 in the presence of dipyridamole / IC50 in the absence of dipyridamole” value in experiment [1] is 11; in experiment [2], 11; in experiment [3], 4; in experiment [4] it was 13.1.

Regarding `CC(C)COC(=O)Nc1ccn(C2OC(CO)C(O)C2(F)F)c(=O)n1` (stereo not shown) [Derivative 8], the pIC50 in experiment [1] (setting [5]) is 6.77; in experiment [2] (setting [5]), 6.62; in experiment [3] (setting [5]), 6.32; in experiment [4] (setting [5]), 6.82. The “Ratio of IC50 in the presence of dipyridamole / IC50 in the absence of dipyridamole” value in experiment [1] was 14; in experiment [2], 10.4; in experiment [3] it was 4.2; in experiment [4] it was 25.

On to `CCOC(=O)Nc1ccn(C2OC(COC(C)=O)C(OC(C)=O)C2(F)F)c(=O)n1` (stereo not shown) [Derivative 13], for which the pIC50 was 5.17 in experiment [1] (setting [6]), 5.20 in experiment [2] (setting [6]), 4.60 in experiment [3] (setting [6]) and 5.30 in experiment [4] (setting [6]). The “Ratio of IC50 in the presence of, compared to in the absence of, dipyridamole” value (shortened to “Ratio of IC50 … in the absence of, dipyridamole”) in experiment [1] came to 3.6; in experiment [2], 2.85; in experiment [3], 1; in experiment [4], 2.8.

With `CC(=O)OCC1OC(n2ccc(NC(=O)OCCCl)nc2=O)C(F)(F)C1OC(C)=O` (stereo not shown) [Derivative 15], the pIC50 in experiment [1] (setting [6]) is 5.40; in experiment [2] (setting [6]), 5.43; in experiment [3] (setting [6]) it was 5.00; in experiment [4] (setting [6]) it was 5.52. For the same compound, the “Ratio of IC50 … in the absence of, dipyridamole” value is 4.5 in experiment [1], 3.7 in experiment [2], 2.5 in experiment [3] and 3.3 in experiment [4].

For the compound `CC(=O)OCC1OC(n2ccc(N3CCOC3=O)nc2=O)C(F)(F)C1OC(C)=O` (stereo not shown) [Derivative 16], the pIC50 is 5.38 in experiment [1] (setting [6]), 5.21 in experiment [2] (setting [6]), 4.60 in experiment [3] (setting [6]) and 5.30 in experiment [4] (setting [6]). Also, the “Ratio of IC50 … in the absence of, dipyridamole” value in experiment [1] was 3.8; in experiment [2] it was 2.7; in experiment [3], 1; in experiment [4] it was 3.4.

On to `C#CCOC(=O)Nc1ccn(C2OC(COC(C)=O)C(OC(C)=O)C2(F)F)c(=O)n1` (stereo not shown) [Derivative 18], for which the pIC50 was 6.21 in experiment [1] (setting [6]), 6.05 in experiment [2] (setting [6]), 5.18 in experiment [3] (setting [6]) and 6.14 in experiment [4] (setting [6]). Besides, the “Ratio of IC50 … in the absence of, dipyridamole” value is on record as 12.7 in experiment [1], 6.5 in experiment [2], 3.1 in experiment [3] and 10.8 in experiment [4].

As to `CC(=O)OCC1OC(n2ccc(NC(=O)OCC(C)c3ccccc3[N+](=O)[O-])nc2=O)C(F)(F)C1OC(C)=O` (stereo not shown) [Derivative 19], the pIC50 in experiment [1] (setting [6]) was 5.94; in experiment [2] (setting [6]), 5.80; in experiment [3] (setting [6]), 5.10; in experiment [4] (setting [6]), 6.11. The “Ratio of IC50 … in the absence of, dipyridamole” value in experiment [1] was 3.5; in experiment [2] it was 15; in experiment [3] it was 1.1; in experiment [4], 8.

As for `COc1cc(COC(=O)Nc2ccn(C3OC(COC(C)=O)C(OC(C)=O)C3(F)F)c(=O)n2)c([N+](=O)[O-])cc1OC` (stereo not shown) [Derivative 20], the pIC50 is 6.24 in experiment [1] (setting [6]), 6.21 in experiment [2] (setting [6]), 5.41 in experiment [3] (setting [6]) and 6.22 in experiment [4] (setting [6]). The “Ratio of IC50 … in the absence of, dipyridamole” value in experiment [1] came to 17.54; in experiment [2], 7.5; in experiment [3] it was 4; in experiment [4], 4.6.

`CC(=O)OCC1OC(n2ccc(NC(=O)OCC(C)C)nc2=O)C(F)(F)C1OC(C)=O` (stereo not shown) [Derivative 21]: the pIC50 in experiment [1] (setting [6]) is 5.37; in experiment [2] (setting [6]), 5.10; in experiment [3] (setting [6]) it was 4.60; in experiment [4] (setting [6]), 5.49. In addition, the “Ratio of IC50 … in the absence of, dipyridamole” value in experiment [1] worked out at 3.7; in experiment [2] it was 2.6; in experiment [3], 1; in experiment [4], 2.8.

On to `CC(=O)Nc1ccn(C2OC(COC(C)=O)C(OC(C)=O)C2(F)F)c(=O)n1` (stereo not shown) [Derivative 22], for which the pIC50 is 6.59 in experiment [1] (setting [6]), 6.40 in experiment [2] (setting [6]), 5.43 in experiment [3] (setting [6]) and 6.35 in experiment [4] (setting [6]). Besides, the “Ratio of IC50 … in the absence of, dipyridamole” value in experiment [1] is 13.4; in experiment [2], 4; in experiment [3] it was 1.6; in experiment [4], 4.1.

What is called pIC50 is the negative decadic logarithm of the IC50, by convention in mol/L.
